“And” between values parts separate entries of the source, which are not always exact repeats. Equal entries are not always repeated.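 Tested at 5 concentrations; 48 h exposure; 96-well plates; endpoints linearly interpolated, else capped at highest concentration. GI50 is the concentration that inhibits growth by half. The concentration for full growth arrest is given as TGI.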
Legend:
Assay in all cases: NCI-60 cell line screen, 48 h
RPMI-8226 leukemia = tested on: RPMI-8226 leukemia
COLO 205 colon = tested on: COLO 205 colon
SF-268 CNS = tested on: SF-268 CNS
SF-295 CNS = tested on: SF-295 CNS
HOP-62 NSCLC = tested on: HOP-62 NSCLC
KM12 colon = tested on: KM12 colon
NCI-H23 lung = tested on: NCI-H23 lung
SNB-19 CNS = tested on: SNB-19 CNS
CAKI-1 renal = tested on: CAKI-1 renal

Structure (SMILES)	TGI (RPMI-8226 leukemia) [µM]	TGI (COLO 205 colon) [µM]	TGI (SF-268 CNS) [µM]	TGI (SF-295 CNS)	TGI (HOP-62 NSCLC)	TGI (KM12 colon)	TGI (NCI-H23 lung) [µM]	TGI (SNB-19 CNS)	TGI (CAKI-1 renal) [µM]	GI50 (SF-268 CNS) [µM]	GI50 (SF-295 CNS) [µM]	GI50 (RPMI-8226 leukemia) [µM]	GI50 (COLO 205 colon) [µM]	GI50 (HOP-62 NSCLC) [µM]	GI50 (NCI-H23 lung) [µM]	GI50 (SNB-19 CNS) [µM]
COC(=O)C1=C(C)N(NC(N)=O)C2(N)N(NC(N)=O)C(C)=C(C(=O)OC)C12C(=O)OC (stereo not drawn)	> 100	> 100	> 100	> 10 µM	> 100 µM	> 10 µM	> 100	> 100 µM	> 100	–	–	–	–	–	–	–
CCCN(CCCCC(NC(C)=O)C(=O)NCc1ccccc1)C(=O)NCCCl (stereo not drawn)	> 100	> 100	> 100	> 100 µM	> 100 µM	> 100 µM	> 100	> 100 µM	> 100	–	–	–	–	–	–	–
CC(C)C(=O)/C=C/c1ccccc1	> 100	> 100	> 100	> 100 µM	–	> 100 µM	> 100	> 100 µM	–	–	–	–	–	–	–	–
O=C1NC(=S)NC(=O)C1=Cc1cc2c(cc1[N+](=O)[O-])OCO2	> 100	> 100	> 100	–	> 100 µM	> 100 µM	–	> 100 µM	> 100	–	–	–	–	–	–	–
Cc1ccccc1-c1c(N)nc(NC#N)nc1C(=O)Nc1ccccc1	> 100	> 100	> 100	> 100 µM	> 100 µM	> 100 µM	> 100	> 100 µM	> 100	–	–	–	–	–	–	–
CC(C)N(C(=O)C12C3C4C5(C#N)C3C1(I)C5C42I)C(C)C (stereo not drawn)	> 67.2	> 58.9	> 100	> 100 µM	> 100 µM	> 100 µM	> 100	> 100 µM	> 100	–	–	–	–	–	–	–
COC(=O)C1CC(C(=O)OC)c2nc3cc(C)ccc3nc21 (stereo not drawn)	> 100	> 100	> 100	> 100 µM	> 100 µM	> 100 µM	> 100	> 100 µM	> 100	–	–	–	–	–	–	–
CCOc1ccc(N=Cc2cccc3cccnc23)cc1	> 100	> 100	> 100	> 100 µM	> 100 µM	> 100 µM	> 100	> 100 µM	> 100	–	–	–	–	–	–	–
COC(=O)C(CCS(=O)(=O)CC(=O)C(=O)Nc1cccc(C(C)=O)c1)C(=O)OC	> 69.4	> 94.2	> 100	> 100 µM	> 100 µM	> 100 µM	> 100	> 100 µM	> 100	–	–	–	–	–	–	–
CC(=O)Nc1ccc(C(=O)N2N=C(C)/C(=C/c3ccccc3O)C2=O)cc1	> 100	> 100	> 100	> 100 µM	> 100 µM	> 100 µM	> 100	> 100 µM	> 100	–	–	–	–	–	–	–
O=C(O)CNc1c2ccccc2nc2ccccc12	> 100	> 100	> 100	> 100 µM	–	> 100 µM	> 100	> 100 µM	> 100	–	–	–	–	–	–	–
N#CC(NNC(=O)c1ccccc1O)c1ccc(O)cc1 (stereo not drawn)	> 100	> 100	> 100	> 100 µM	> 100 µM	> 100 µM	> 100	–	98.9	–	–	–	–	–	–	–
COc1ccc2[nH]c(-c3ccccn3)cc(=O)c2c1	> 100	> 100	65.8	> 100 µM	> 100 µM	> 100 µM	> 100	> 100 µM	–	24.2	51.5	–	–	–	–	–
O=C1c2cccc3cc([N+](=O)[O-])cc(c23)C(=O)N1CCNCCNCCNCCN1C(=O)c2cccc3cc([N+](=O)[O-])cc(c23)C1=O	–	–	0.7	0.422 µM and 0.465 µM	0.216 µM and 0.444 µM	0.668 µM and 4.47 µM	–	2.34 µM and 0.926 µM	0.548	–	–	–	–	–	–	–
CCN1C2=NC(=O)N(C)C(=O)C2(Cl)C(C(SC)S(=O)(=O)c2ccc(C)cc2)c2ccccc21 (stereo not drawn)	41.6	99.2	> 100	> 100 µM	> 100 µM	–	50.4	> 100 µM	> 100	–	–	–	–	–	–	–
O=S(=O)([O-])c1cccc2cccc(N=Cc3ccccc3[O-])c12.O=S(=O)([O-])c1cccc2cccc(N=Cc3ccccc3[O-])c12.[O]=[U]=[O]	> 100	> 100	> 100	> 100 µM	> 100 µM	–	> 100	> 100 µM	–	> 100	67.5	39.8	64.8	42.6	51.5	45.6
[N-]=[N+]=NC(c1cn(C2CC(O)C(CO)O2)c(=O)[nH]c1=O)C(Br)I (stereo not drawn)	> 100	> 100	–	> 100 µM	> 100 µM	> 100 µM	> 100	> 100 µM	> 100	–	–	–	–	–	–	–

From PubChem BioAssay (NCI)
